Measurements as given in ChEMBL document CHEMBL1201862, “PubChem BioAssay data set” (2004).
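48-hour exposure; five concentrations; linearly interpolated endpoints. GI50 marks 50% less growth.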 Active and inactive are the calls of the source. Cut-off read from the data, not from the text of the source: active = GI50 up to about 1.1 µM and inactive = higher.

How the values were obtained:
Assay in all cases: inhibition of tumour cell growth, NCI panel, 48 h
UACC-62 = system: UACC-62
RXF 393 = system: RXF 393
OVCAR-5 = system: OVCAR-5
SF-539 = system: SF-539
RPMI-8226 = system: RPMI-8226
U-251 = system: U-251
A498 = system: A498
UACC-257 = system: UACC-257
HCC 2998 = system: HCC 2998
SK-OV-3 = system: SK-OV-3
SF-268 = system: SF-268
DMS-273 = system: DMS-273
M14 = system: M14
SK-MEL-5 = system: SK-MEL-5
ACHN = system: ACHN
NCI-H522 = system: NCI-H522
A549 = system: A549
NCI-H23 = system: NCI-H23

Row | SMILES | GI50 (UACC-62) | GI50 (RXF 393) | GI50 (OVCAR-5) | GI50 (SF-539) | GI50 (RPMI-8226) | GI50 (U-251) | GI50 (A498) | GI50 (UACC-257) | GI50 (HCC 2998) | GI50 (SK-OV-3) | GI50 (SF-268) | GI50 (DMS-273) | GI50 (M14) | GI50 (SK-MEL-5) | GI50 (ACHN) | GI50 (NCI-H522) | GI50 (A549) | GI50 (NCI-H23)
1 | Cc1cccc(C)c1NC(=O)CCCC(=O)C(C#N)c1ccccc1 (stereo not drawn) | > 10 µM (inactive) | > 100 µM (inactive) | > 10 µM (inactive) | > 10 µM (inactive) | > 100 µM (inactive) | > 10 µM (inactive) | > 10 µM (inactive) | > 100 µM (inactive) | > 10 µM (inactive) | 91 µM (inactive) | > 10 µM (inactive) | > 10 µM (inactive) | > 100 µM (inactive) | > 100 µM (inactive) | > 100 µM (inactive) | > 100 µM (inactive) | > 10 µM (inactive) | > 100 µM (inactive)
2 | CC1=C(O)C(=O)C2C(=O)C1C1Cc3ccccc3C21 (stereo not drawn) | > 100 µM (inactive) | > 100 µM (inactive) | > 100 µM (inactive) | > 100 µM (inactive) | > 100 µM (inactive) | > 100 µM (inactive) | > 100 µM (inactive) |  | > 100 µM (inactive) | > 100 µM (inactive) | > 100 µM (inactive) | > 100 µM (inactive) | > 100 µM (inactive) | > 100 µM (inactive) | > 100 µM (inactive) | > 100 µM (inactive) | > 100 µM (inactive) | > 100 µM (inactive)
3 | O=C(CO)C1CC2C=CC1C2 (stereo not drawn) | > 100 µM (inactive) | > 100 µM (inactive) | > 100 µM (inactive) | > 100 µM (inactive) | > 100 µM (inactive) | > 100 µM (inactive) | > 100 µM (inactive) | > 100 µM (inactive) |  | > 100 µM (inactive) | > 100 µM (inactive) | > 100 µM (inactive) | > 100 µM (inactive) | > 100 µM (inactive) | > 100 µM (inactive) | > 100 µM (inactive) | > 100 µM (inactive) | > 100 µM (inactive)
4 | CC1=C(c2cc(C(=O)Nc3ccc(Cl)c(Cl)c3)nc(N)n2)Sc2ccccc2N1 | > 100 µM (inactive) | 89.7 µM (inactive) | > 100 µM (inactive) | > 100 µM (inactive) | > 100 µM (inactive) | > 100 µM (inactive) | > 100 µM (inactive) | > 100 µM (inactive) | > 100 µM (inactive) | > 100 µM (inactive) | > 100 µM (inactive) | > 100 µM (inactive) | > 100 µM (inactive) | > 100 µM (inactive) | > 100 µM (inactive) | > 100 µM (inactive) | > 100 µM (inactive) | > 100 µM (inactive)
5 | O=C(O)c1c2c(c(C(=O)O)c3ccccc13)-c1ccccc1-2 | 22.9 µM (inactive) | 21.9 µM (inactive) | > 100 µM (inactive) | 28.7 µM (inactive) | 40.2 µM (inactive) | 35.6 µM (inactive) | 44.1 µM (inactive) | 47.5 µM (inactive) | 37.1 µM (inactive) | 27.8 µM (inactive) | 31.9 µM (inactive) | 49.3 µM (inactive) | 47.5 µM (inactive) |  | 30.8 µM (inactive) | 35.2 µM (inactive) | 36 µM (inactive) | 39.8 µM (inactive)
6 | CC1=CC(=O)c2c(C=O)c(O)c(O)c(C(C)C)c2C1=O | 20.3 µM (inactive) | 14 µM (inactive) | 35.5 µM (inactive) | 25.6 µM (inactive) | 19.8 µM (inactive) | 19.8 µM (inactive) | 24.4 µM (inactive) |  | 29.3 µM (inactive) | 34.5 µM (inactive) | 20.9 µM (inactive) | 31 µM (inactive) | 31.3 µM (inactive) | 0.494 µM (active) | 16.8 µM (inactive) | 12.4 µM (inactive) |  | 28.8 µM (inactive)
7 | COc1ccc2c3c([nH]c2c1[N+](=O)[O-])C(C)N(C)CC3 (stereo not drawn) | > 100 µM (inactive) |  | > 100 µM (inactive) | > 100 µM (inactive) | 77.4 µM (inactive) | > 100 µM (inactive) | > 100 µM (inactive) | > 100 µM (inactive) | > 100 µM (inactive) | > 100 µM (inactive) | > 10 µM (inactive) | > 100 µM (inactive) | > 100 µM (inactive) | 49.5 µM (inactive) | > 100 µM (inactive) | > 100 µM (inactive) | > 100 µM (inactive) | > 100 µM (inactive)
8 | CCN(CC)/C(=C\Cl)Nc1ccccn1.[O-][Cl+3]([O-])([O-])O | > 100 µM (inactive) | > 100 µM (inactive) | > 100 µM (inactive) | > 100 µM (inactive) | > 100 µM (inactive) | > 100 µM (inactive) | > 100 µM (inactive) | > 100 µM (inactive) | > 100 µM (inactive) | > 100 µM (inactive) | > 100 µM (inactive) | > 100 µM (inactive) | > 100 µM (inactive) | > 100 µM (inactive) | > 100 µM (inactive) | > 100 µM (inactive) | > 100 µM (inactive) | > 100 µM (inactive)
9 | O=C1CC(c2ccccc2)NCN1 (stereo not drawn) | > 100 µM (inactive) | > 100 µM (inactive) | > 100 µM (inactive) |  | > 100 µM (inactive) | > 100 µM (inactive) | > 100 µM (inactive) | > 100 µM (inactive) | > 100 µM (inactive) | > 100 µM (inactive) | > 100 µM (inactive) | > 100 µM (inactive) | > 100 µM (inactive) | > 100 µM (inactive) | > 100 µM (inactive) | > 100 µM (inactive) | > 100 µM (inactive) | > 100 µM (inactive)
10 | S=C(Nc1ccccc1)Nc1ccccc1SC(/C=C/NNC1=NN=C(c2ccccc2)C(c2ccccc2)N1)c1ccccc1 (stereo not drawn) | > 100 µM (inactive) | 8.02 µM (inactive) | > 100 µM (inactive) | 83.9 µM (inactive) | 59 µM (inactive) | > 100 µM (inactive) | > 100 µM (inactive) |  | 26.4 µM (inactive) | > 100 µM (inactive) | > 100 µM (inactive) | > 100 µM (inactive) | > 100 µM (inactive) | 44.6 µM (inactive) | 69.7 µM (inactive) | 8.85 µM (inactive) | > 100 µM (inactive) | 
11 | COc1cc2c(c(OC)c1OC)-c1ccc(SC)c(=O)cc1C(CC(=O)Oc1ccc(F)cc1)C2 (stereo not drawn) | 0.129 µM (active) | 0.0365 µM (active) | 39.1 µM (inactive) | 0.117 µM (active) | 0.296 µM (active) | 0.159 µM (active) | 0.0374 µM (active) | 38.9 µM (inactive) | 0.121 µM (active) | 0.028 µM (active) | 0.622 µM (active) | 0.193 µM (active) | 0.172 µM (active) | 0.193 µM (active) | 0.18 µM (active) | 0.116 µM (active) | 0.134 µM (active) | 0.215 µM (active)
12 | CCc1cc(CCC(=O)Nc2c(C)cccc2C)n[nH]1 | > 100 µM (inactive) | > 100 µM (inactive) | > 100 µM (inactive) | > 100 µM (inactive) | > 100 µM (inactive) | > 100 µM (inactive) | > 100 µM (inactive) | > 100 µM (inactive) | > 100 µM (inactive) | > 100 µM (inactive) | > 100 µM (inactive) | > 100 µM (inactive) | > 100 µM (inactive) | > 100 µM (inactive) | > 100 µM (inactive) | > 100 µM (inactive) | > 100 µM (inactive) | > 100 µM (inactive)
13 | CCOC1=C2C(=O)OC(=O)C2C2CCCCC2=C1 (stereo not drawn) | > 100 µM (inactive) | > 100 µM (inactive) |  | > 100 µM (inactive) | > 100 µM (inactive) | > 100 µM (inactive) | > 10 µM (inactive) | > 100 µM (inactive) | > 100 µM (inactive) | > 100 µM (inactive) | > 100 µM (inactive) | > 100 µM (inactive) | > 100 µM (inactive) | > 100 µM (inactive) |  | > 100 µM (inactive) | > 100 µM (inactive) | > 100 µM (inactive)
14 | Cc1ccc(-c2nc3c(C(=O)NCCN(C)C)cccc3[nH]2)cc1 | 18.1 µM (inactive) | 10.7 µM (inactive) | 20.9 µM (inactive) | 9.12 µM (inactive) |  | 18.3 µM (inactive) | 13 µM (inactive) | 14 µM (inactive) | 14.3 µM (inactive) | 14.5 µM (inactive) | 18.5 µM (inactive) | 9.06 µM (inactive) | 15.8 µM (inactive) | 13.7 µM (inactive) | 10.3 µM (inactive) |  | 11.2 µM (inactive) | 15 µM (inactive)
15 | O=C(N/C(=C\c1ccc(/C=C(\NC(=O)c2ccccc2)c2nc3cc(Cl)ccc3[nH]2)cc1)c1nc2cc(Cl)ccc2[nH]1)c1ccccc1 | 16.6 µM (inactive) | 13.4 µM (inactive) | > 100 µM (inactive) | 20.6 µM (inactive) | 3.99 µM (inactive) | 39.6 µM (inactive) | 22.9 µM (inactive) | 36.4 µM (inactive) |  | > 100 µM (inactive) | 11.8 µM (inactive) | 13.8 µM (inactive) | 26.9 µM (inactive) | 17.4 µM (inactive) | 26.9 µM (inactive) | 13.6 µM (inactive) | 24.9 µM (inactive) | 27.7 µM (inactive)
16 | COc1cc2c(cc1OC)[Se]c1cc(OC)c(OC)cc1[Se]2 | > 10 µM (inactive) | 15.1 µM (inactive) | > 10 µM (inactive) | 90.8 µM (inactive) | > 10 µM (inactive) | > 10 µM (inactive) | > 10 µM (inactive) | > 10 µM (inactive) |  | > 10 µM (inactive) | > 10 µM (inactive) | 38.1 µM (inactive) | > 10 µM (inactive) | > 10 µM (inactive) | > 10 µM (inactive) | 8.75 µM (inactive) | > 10 µM (inactive) | > 10 µM (inactive)
